Data on 21 compounds can be found in patent US8293772B2, “Triazole substituted aminobenzophenone compounds” (Leo Pharma A/S, priority 2004, dated 2012).

One assay has as its system IL-1β. The assay can be described thus: Inhibition of IL-1β secretion in LPS stimulated peripheral blood mononuclear cells. Format: cell-based. The following applies: LPS stimulated human PBMC, 18 hours, ELISA; read-out: The median inhibition concentration (IC50, nM) of IL-1β. The protocol:
(§1) To study the effect of compounds of the present invention in vitro, the inhibition of IL-1β and TNF-α secretion was determined using the following procedure:
(§2) Cytokine production was measured in the media from lipopolysaccharide (LPS) stimulated peripheral blood mononuclear cells. The mononuclear cells were isolated from human peripheral blood by Lymphoprep® (Nycomed, Norway) fractionation and suspended in RPMI 1640 (growth medium) with foetal calf serum (FCS, 2%), at a concentration of 5×10^5 cells/ml. The cells were incubated in 24-well tissue culture plates in 1 ml aliquots. Test compounds were dissolved in dimethylsulfoxide (DMSO, 10 mM) and were diluted with the medium. Compounds were added to the cells for 30 minutes, then LPS ([…] final concentration) was added. The plates were incubated for 18 hours, and the concentration of IL-1β and TNF-α in the medium was determined by enzyme-linked immunosorbent assays. The median inhibitory concentrations (IC50) of the compounds were calculated.

For assay [1], the system named is TNF-α. Kind of assay: Inhibition of TNF-α secretion in LPS stimulated peripheral blood mononuclear cells. Format: cell-based. The settings on record: LPS stimulated human PBMC, 18 hours, ELISA; read-out: The median inhibition concentration (IC50, nM) of TNF-α. The protocol: as §1, §2
For orientation: ELISA stands for enzyme-linked immunosorbent assay.

For assay [2], the system named is TNF-α. Kind of assay: In vivo screening model of LPS induced TNF-α response in mice. The settings on record: Mus musculus, po, 1 mg/kg p.o., 1 hour prior to LPS, plasma TNF-α 80-90 minutes after LPS, read-out: In vivo inhibition of LPS induced TNF-α production (in %). The protocol:
In Vivo Screening Model of LPS Induced TNF-α Response in Mice
To study the effect of compounds of the present invention in vivo, an in vivo screening model of LPS induced TNF-α response in mice was set up as follows: Groups of 6 mice (C3H/HeN, female, about 8 weeks (20 g), Bomholtgaard) were dosed with test compounds in suspension vehicle 1 hour prior to LPS administration (LPS from E. coli 055:B5, L-4005, Sigma). At time 0, the mice were dosed ip with 1.0 mg LPS/kg. After anesthetization with Hypnorm/Dormicum, the mice were bled from the periorbital venous plexus 80-90 minutes after LPS administration. The blood samples were sampled in EDTA stabilised tubes and centrifuged at 4000 rpm for 10 minutes at 4° C. The plasma level of TNF-α was analysed by ELISA. Compound 156 of WO 98/32730 was used as reference compound. The plasma level of TNF-α was determined using a sandwich ELISA. Microtiter plates were coated with a monoclonal antibody against mouse TNF-α, washed and blocked with a casein buffer. Samples of mouse TNF-α recombinant standards were added to the wells of the microtiter plates and incubated. All standards were tested in triplicate, all plasma samples in single. After sample and standard incubation, the plates were washed and incubated with biotinylated polyclonal secondary antibody against mouse TNF-α and washed. Enzyme conjugate was added to all wells and incubated. Substrate was added and the enzyme/substrate reaction stopped after 15 minutes at room temperature with 1M H2SO4. The colour development (OD) was measured at 450 nm on an ELISA reader and the background OD at 620 nm was subtracted. […] The results of the tested compounds are indicated as a percentage inhibition compared to an LPS treated control group. Compounds were tested at 1 mg/kg (p.o.). The Mann-Whitney test was used to compare drug treated groups to the LPS treated control group (p<0.05).

What is called inhibition in vivo is the drop in the measured response relative to a control, in per cent. For the compound `Cc1ccc(-c2cn(CCCO)nn2)cc1C(=O)c1ccc(Nc2ccc(F)cc2F)cc1Cl` [Compound 104, [2-Chloro-4-(2,4-difluoro-phenylamino)-phenyl]-{5-[1-(3-hydroxy-propyl)-1H-[1,2,3]triazol-4-yl]-2-methyl-phenyl}-methanone], the values for the IC50 in the assay with IL-1β and with TNF-α [1] were 0.6 nM and 0.5 nM, respectively. Besides, the inhibition in vivo at 1 mg/kg with TNF-α [2] is 90%.
`Cc1ccc(-c2cn(CC3COC(C)(C)O3)nn2)cc1C(=O)c1ccc(Nc2ccc(F)cc2F)cc1Cl` (centres unmarked) [Compound 105, [2-Chloro-4-(2,4-difluoro-phenylamino)-phenyl]-{5-[1-(2,2-dimethyl-[1,3]dioxolan-4-ylmethyl)-1H-[1,2,3]triazol-4-yl]-2-methyl-phenyl}-methanone]: the IC50 in the assay on TNF-α [1] came to 1.4 nM.
With `Cc1ccc(-c2cn(CC(O)CO)nn2)cc1C(=O)c1ccc(Nc2ccc(F)cc2F)cc1Cl` (centres unmarked) [Compound 106, [2-Chloro-4-(2,4-difluoro-phenylamino)-phenyl]-{5-[1-(2,3-dihydroxy-propyl)-1H-[1,2,3]triazol-4-yl]-2-methyl-phenyl}-methanone], the results for the IC50 in the assay on IL-1β and in the assay with TNF-α [1] were 0.7 nM and 0.5 nM, respectively. In the assay with TNF-α [2], the inhibition in vivo at 1 mg/kg turned out to be 98%.
For the compound `Cc1ccc(-c2cn(CC(N)=O)nn2)cc1C(=O)c1ccc(Nc2ccc(F)cc2F)cc1Cl` [Compound 107, 2-(4-{3-[2-Chloro-4-(2,4-difluoro-phenylamino)-benzoyl]-4-methyl-phenyl}-[1,2,3]triazol-1-yl)-acetamide], the IC50 in the assay on IL-1β turned out to be 0.8 nM; with TNF-α [1] it was 0.5 nM. In the assay with TNF-α [2], the inhibition in vivo at 1 mg/kg is 91%.
Consider `CCOC(=O)Cn1cc(-c2ccc(C)c(C(=O)c3ccc(Nc4ccc(F)cc4F)cc3Cl)c2)nn1` [Compound 110, (4-{3-[2-Chloro-4-(2,4-difluoro-phenylamino)-benzoyl]-4-methyl-phenyl}-[1,2,3]triazol-1-yl)-acetic acid ethyl ester], for which the values for the IC50 in the assay with IL-1β and in the assay on TNF-α [1] were 6.3 nM and 3.6 nM, respectively.
The like results for `Cc1ccc(-c2cn(CC(=O)NC(C)(C)CO)nn2)cc1C(=O)c1ccc(Nc2ccc(F)cc2F)cc1Cl` [Compound 113, 2-(4-{3-[2-Chloro-4-(2,4-difluoro-phenylamino)-benzoyl]-4-methyl-phenyl}-[1,2,3]triazol-1-yl)-N-(2-hydroxy-1,1-dimethyl-ethyl)-acetamide] were, in that order, 6.3 nM and 0.6 nM.
Taken in the same sequence, the figures for `Cc1ccccc1Nc1ccc(C(=O)c2cc(-n3cc(CCO)nn3)ccc2C)c(Cl)c1` [Compound 117, (2-Chloro-4-o-tolylamino-phenyl)-{5-[4-(2-hydroxy-ethyl)-[1,2,3]triazol-1-yl]-2-methyl-phenyl}-methanone] were 1.6 nM and 1.1 nM.
The like results for `Cc1ccc(-n2cc(CCO)nn2)cc1C(=O)c1ccc(Nc2ccc(F)cc2Cl)cc1Cl` [Compound 118, [2-Chloro-4-(2-chloro-4-fluoro-phenylamino)-phenyl]-{5-[4-(2-hydroxy-ethyl)-[1,2,3]triazol-1-yl]-2-methyl-phenyl}-methanone] were, in that order, 1.3 nM and 0.9 nM.
As for `COc1ccc(-c2cn(CCO)nn2)cc1C(=O)c1ccc(Nc2ccc(F)cc2F)cc1Cl` [Compound 120, [2-Chloro-4-(2,4-difluoro-phenylamino)-phenyl]-{5-[1-(2-hydroxy-ethyl)-1H-[1,2,3]triazol-4-yl]-2-methoxy-phenyl}-methanone], the IC50 in the assay on IL-1β stood at 5 nM; in the assay on TNF-α [1] it was 0.8 nM.
As to `Cc1ccc(-n2cc(CCO)nn2)cc1C(=O)c1ccc(Nc2ccc(F)cc2F)cc1Cl` [Compound 128, [2-Chloro-4-(2,4-difluoro-phenylamino)-phenyl]-{5-[4-(2-hydroxy-ethyl)-[1,2,3]triazol-1-yl]-2-methyl-phenyl}-methanone], the IC50 with TNF-α [1] was 1 nM. In addition, in the assay on TNF-α [2], the inhibition in vivo at 1 mg/kg was determined as 95%.
The like results for `Cc1ccc(-n2cc(C(C)(C)O)nn2)cc1C(=O)c1ccc(Nc2ccc(F)cc2F)cc1Cl` [Compound 129, [2-Chloro-4-(2,4-difluoro-phenylamino)-phenyl]-{5-[4-(1-hydroxy-1-methyl-ethyl)-[1,2,3]triazol-1-yl]-2-methyl-phenyl}-methanone] were, in that order, 1.4 nM and 83%.
For the compound `CC(=O)c1cn(-c2ccc(C)c(C(=O)c3ccc(Nc4ccc(F)cc4F)cc3Cl)c2)nn1` [Compound 130, 1-(1-{3-[2-Chloro-4-(2,4-difluoro-phenylamino)-benzoyl]-4-methyl-phenyl}-1H-[1,2,3]triazol-4-yl)-ethanone], the IC50 with IL-1β worked out at 1.3 nM; with TNF-α [1], 0.6 nM.
The like results for `Cc1ccc(-n2cc(CCN)nn2)cc1C(=O)c1ccc(Nc2ccc(F)cc2F)cc1Cl` [Compound 136, {5-[4-(2-Amino-ethyl)-[1,2,3]triazol-1-yl]-2-methyl-phenyl}-[2-chloro-4-(2,4-difluoro-phenylamino)-phenyl]-methanone] were, in that order, 1.6 nM and 1.3 nM.
Taken in the same sequence, the figures for `Cc1ccc(-n2cc(CNC(N)=O)nn2)cc1C(=O)c1ccc(Nc2ccc(F)cc2F)cc1Cl` [Compound 137, (1-{3-[2-Chloro-4-(2,4-difluoro-phenylamino)-benzoyl]-4-methyl-phenyl}-1H-[1,2,3]triazol-4-ylmethyl)-urea] were 1 nM and 0.3 nM.
`Cc1ccc(-n2cc(CCN3CCOCC3)nn2)cc1C(=O)c1ccc(Nc2ccc(F)cc2F)cc1Cl` [Compound 138, [2-Chloro-4-(2,4-difluoro-phenylamino)-phenyl]-{2-methyl-5-[4-(2-morpholin-4-yl-ethyl)-[1,2,3]triazol-1-yl]-phenyl}-methanone]: the IC50 in the assay on IL-1β was 3.2 nM; in the assay on TNF-α [1], 2 nM.
Taken in the same sequence, the figures for `Cc1ccc(-n2cc(CCN3CCN(C)CC3)nn2)cc1C(=O)c1ccc(Nc2ccc(F)cc2F)cc1Cl` [Compound 139, [2-Chloro-4-(2,4-difluoro-phenylamino)-phenyl]-(2-methyl-5-{4-[2-(4-methyl-piperazin-1-yl)-ethyl]-[1,2,3]triazol-1-yl}-phenyl)-methanone] were 1.6 nM and 0.5 nM.
The like results for `CCN(CC)CCc1cn(-c2ccc(C)c(C(=O)c3ccc(Nc4ccc(F)cc4F)cc3Cl)c2)nn1` [Compound 140, [2-Chloro-4-(2,4-difluoro-phenylamino)-phenyl]-{5-[4-(2-diethylamino-ethyl)-[1,2,3]triazol-1-yl]-2-methyl-phenyl}-methanone] were, in that order, 2 nM and 0.8 nM.
Taken in the same sequence, the figures for `Cc1ccc(-n2cc(CCNCCO)nn2)cc1C(=O)c1ccc(Nc2ccc(F)cc2F)cc1Cl` [Compound 141, [2-Chloro-4-(2,4-difluoro-phenylamino)-phenyl]-(5-{4-[2-(2-hydroxy-ethylamino)-ethyl]-[1,2,3]triazol-1-yl}-2-methyl-phenyl)-methanone] were 0.6 nM and 0.6 nM.
`CCCNCCc1cn(-c2ccc(C)c(C(=O)c3ccc(Nc4ccc(F)cc4F)cc3Cl)c2)nn1` [Compound 142, [2-Chloro-4-(2,4-difluoro-phenylamino)-phenyl]-{2-methyl-5-[4-(2-propylamino-ethyl)-[1,2,3]triazol-1-yl]-phenyl}-methanone]: the IC50 with IL-1β stood at 1 nM; with TNF-α [1], 0.8 nM.
The like results for `Cc1cc(F)ccc1Nc1ccc(C(=O)c2cc(-n3cc(CCO)nn3)ccc2C)c(Cl)c1` [Compound 143, [2-Chloro-4-(4-fluoro-2-methyl-phenylamino)-phenyl]-{5-[4-(2-hydroxy-ethyl)-[1,2,3]triazol-1-yl]-2-methyl-phenyl}-methanone] were, in that order, 4 nM and 1 nM.
The like results for `Cc1cc(Cl)ccc1Nc1ccc(C(=O)c2cc(-n3cc(CCO)nn3)ccc2C)c(Cl)c1` [Compound 145, [2-Chloro-4-(4-chloro-2-methyl-phenylamino)-phenyl]-{5-[4-(2-hydroxy-ethyl)-[1,2,3]triazol-1-yl]-2-methyl-phenyl}-methanone] were, in that order, 5 nM and 2 nM.
